What was measured:
[1] = tested on: three strains of Escherichia coli isolated from the vaginal secretion of patients with vaginitis; experiment: Growth in enrichment broth (turbidity after 24 hours), clinical strains; assay type: cell-based; parameters: key to growth of Escherichia coli, Bacterial strain 1 / growth of Escherichia coli, Bacterial strain 2 / growth of Escherichia coli, Bacterial strain 3: +: means the growth of bacteria; −: means no growth of bacteria; conditions: enrichment broth, 37° C. for 24 hours, turbidity
Source text: (§1) a. Experimental strains, three strains of Escherichia coli and three strains of Staphylococcus aureus, which were all isolated from the vaginal secretion of patients with vaginitis.
(§2) b. Enrichment broth, which contained 1 percent of yeast extract powder, 9 percent of sucrose, 0.025 percent of manganese sulfate (MnSO4.4H2O), 0.058 percent of magnesium sulfate (MgSO4.7H2O), and 0.9 percent of lactic acid, the pH value of the broth was adjusted to 4.8, and the enrichment broth was sterilized for later use;
(§3) (2). Experimental groups: the requirements for aseptic operation technique were strictly followed to prepare the sterile test tubes:
(§4) a. sodium benzoate group: each test tube contained 5 milliliters of enrichment broth, and was added in 0.05 percent (weight/volume) sodium benzoate;
(§5) b. 2-phenylethanol group: each test tube contained 5 milliliters of enrichment broth, and was added in 0.05 percent (weight/volume) of 2-phenylethanol;
(§6) c. sodium propionate group: each test tube contained 5 milliliters of enrichment broth, and was added in 0.25 percent (weight/volume) of sodium propionate;
(§7) d. “a group of the combinations of sodium benzoate and sodium propionate”: each test tube contained 5 milliliters of enrichment broth, and was added in 0.05 percent (weight/volume) of sodium benzoate and 0.25 percent (weight/volume) of sodium propionate;
(§8) e. “a group of the combinations of sodium benzoate and 2-phenylethanol”: each test tube contained 5 milliliters of enrichment broth, and was added in 0.05 percent (weight/volume) of sodium benzoate and 0.05 percent (weight/volume) of 2-phenylethanol;
(§9) f. “a group of the combinations of sodium propionate and 2-phenylethanol”: each test tube contained 5 milliliters of enrichment broth, and was added in 0.25 percent (weight/volume) of sodium propionate and 0.05 percent (weight/volume) of 2-phenylethanol;
(§10) g. “a group of the combinations of sodium benzoate, sodium propionate and 2-phenylethanol”: each test tube contained 5 milliliters of enrichment broth, and was added in 0.05 percent (weight/volume) of sodium benzoate, 0.25 percent (weight/volume) of sodium propionate, and 0.05 percent (weight/volume) of 2-phenylethanol;
(§11) h. positive control: one tube that contained 5 milliliters of enrichment broth without adding in any of the 2-phenylethanol, sodium benzoate, and sodium propionate, but inoculated the suspension of Escherichia coli or Staphylococcus aureus.
(§12) i. negative control: one tube that contained 5 milliliters of enrichment broth without adding in any of the 2-phenylethanol, sodium benzoate, and sodium propionate, and not inoculated the suspension of Escherichia coli or Staphylococcus aureus.
(§13) The requirements for aseptic operation technique were strictly followed to prepare the bacterial suspensions. The colonies of Escherichia coli and Staphylococcus aureus were diluted with physiological saline respectively to prepare bacterial suspension. The turbidities of the Escherichia coli suspension and the Staphylococcus aureus suspension were adjusted to 0.5 MCF (about 10^8 CFU/ml) by a turbidimeter. 1 milliliter of the 0.5 MCF bacterial suspensions were added into 9 milliliters of the enrichment broth respectively, so each bacterial solution was diluted for ten times to contain 10^7 CFU/ml of bacterial organisms.
(§14) The requirements for aseptic operation technique were strictly followed to take 100 microliters of the prepared bacterial suspensions respectively, and to add the bacterial suspensions into the aforesaid test tubes from a to h as well as positive control tube. No bacterial suspension was added into the negative control tube i.
(§15) The above tubes were cultured in a biochemical incubator at 37° C. for 24 hours, then turbidity changes of the test tube solutions were observed and recorded.
(§16) Remark: “+” means the growth of bacteria; “−” means no growth of bacteria.

[2] = tested on: three strains of Staphylococcus aureus isolated from the vaginal secretion of patients with vaginitis; experiment: as above; assay type: cell-based; parameters: key to growth of Staphylococcus aureus, Bacterial strain 1 / growth of Staphylococcus aureus, Bacterial strain 2 / growth of Staphylococcus aureus, Bacterial strain 3: +: means the growth of bacteria; −: means no growth of bacteria; conditions: enrichment broth, 37° C. for 24 hours, turbidity
Source text: as §1, §2, §3, §4, §5, §6, §7, §8, §9, §10, §11, §12, §13, §14, §15, §16

O=C([O-])c1ccccc1.[Na+] [a. 0.05% sodium benzoate]
+: growth of Escherichia coli, Bacterial strain 1 [1] | growth of Escherichia coli, Bacterial strain 2 [1] | growth of Escherichia coli, Bacterial strain 3 [1] | growth of Staphylococcus aureus, Bacterial strain 1 [2] | growth of Staphylococcus aureus, Bacterial strain 2 [2] | growth of Staphylococcus aureus, Bacterial strain 3 [2]

OCCc1ccccc1 [b. 0.05% 2-phenylethanol]
+: growth of Escherichia coli, Bacterial strain 1 [1] | growth of Escherichia coli, Bacterial strain 2 [1] | growth of Escherichia coli, Bacterial strain 3 [1] | growth of Staphylococcus aureus, Bacterial strain 1 [2] | growth of Staphylococcus aureus, Bacterial strain 2 [2] | growth of Staphylococcus aureus, Bacterial strain 3 [2]

CCC(=O)[O-].[Na+] [c. 0.25% sodium propionate]
+: growth of Escherichia coli, Bacterial strain 1 [1] | growth of Escherichia coli, Bacterial strain 2 [1] | growth of Escherichia coli, Bacterial strain 3 [1] | growth of Staphylococcus aureus, Bacterial strain 1 [2] | growth of Staphylococcus aureus, Bacterial strain 2 [2] | growth of Staphylococcus aureus, Bacterial strain 3 [2]

Source: patent US20190231748A1, “COMPOSITION FOR VAGINA AND ANTIMICROBIAL AGENT COMBINATION FOR USE IN PREPARING COMPOSITION FOR VAGINA” (Shenzhen Eulikan Biotechnology Co., Ltd., priority 2016, published 2019)
